Assay results taken from the kinase profiling compilation of Christmann-Franck et al. (2016).

What was measured:
Assay in all cases: radiometric filter-binding kinase assay, Kinaseprofiler
EPHA5 (human) = EPHA5 (human) (UniProt P54756); details: ATP 10 µM
[1] = target: PRKAA1 PRKAB1 PRKAG1 (human) (UniProt P54619+Q13131+Q9Y478); details: ATP 45 µM
EPHA2 (human) = EPHA2 (human) (UniProt P29317); details: ATP 155 µM
PLK2 (human) = PLK2 (human) (UniProt Q9NYY3); details: ATP 120 µM
CSF1R (human) = CSF1R (human) (UniProt P07333); details: ATP 200 µM
TLK2 (human) = TLK2 (human) (UniProt Q86UE8); details: ATP 10 µM
MAPK11 (human) = MAPK11 (human) (UniProt Q15759); details: ATP 45 µM
GRK7 (human) = GRK7 (human) (UniProt Q8WTQ7); details: ATP 15 µM
FGFR1 (human) = FGFR1 (human) (UniProt P11362); details: ATP 200 µM
CSNK1D (rat) = details: accession and sequence are those of the human protein
MTOR FKBP1A (human) = MTOR FKBP1A (human) (UniProt P42345+P62942); details: ATP 45 µM
[2] = system: RPS6KB1 (human), P23443 [T412E]; details: ATP 15 µM
PTK2B (human) = PTK2B (human) (UniProt Q14289); details: ATP 90 µM
WNK2 (human) = WNK2 (human) (UniProt Q9Y3S1); details: ATP 200 µM
NUAK1 (human) = NUAK1 (human) (UniProt O60285); details: ATP 45 µM
PRKCB2 (human) = PRKCB2 (human) (UniProt P05771); details: ATP 10 µM
RPS6KA6 KD1 KD2 (human) = RPS6KA6 KD1 KD2 (human) (UniProt Q9UK32); details: ATP 45 µM
MAP3K9 (human) = MAP3K9 (human) (UniProt P80192); details: ATP 45 µM
RPS6KA2 KD1 KD2 (human) = RPS6KA2 KD1 KD2 (human) (UniProt Q15349); details: ATP 10 µM
RPS6KA1 KD1 KD2 (human) = RPS6KA1 KD1 KD2 (human) (UniProt Q15418); details: ATP 45 µM
GRK6 (human) = GRK6 (human) (UniProt P43250); details: ATP 45 µM
CLK3 (human) = CLK3 (human) (UniProt P49761); details: ATP 90 µM
RPS6KA5 KD1 KD2 (human) = RPS6KA5 KD1 KD2 (human) (UniProt O75582); details: ATP 90 µM
MARK2 (human) = MARK2 (human) (UniProt Q7KZI7); details: ATP 15 µM
CDK2 CCNA2 (human) = CDK2 CCNA2 (human) (UniProt P24941+P20248); details: ATP 45 µM
[3] = system: IRAK4 (human), Q9NWZ3 [A81V]; details: ATP 200 µM
GRK5 (human) = GRK5 (human) (UniProt P34947); details: ATP 15 µM
TXK (human) = TXK (human) (UniProt P42681); details: ATP 200 µM
[4] = system: SGK1 (human), O00141 [S422D]; details: ATP 90 µM
FRK (human) = FRK (human) (UniProt P42685); details: ATP 155 µM
RPS6KA3 KD1 KD2 (human) = RPS6KA3 KD1 KD2 (human) (UniProt P51812); details: ATP 10 µM
ACVR1B (human) = ACVR1B (human) (UniProt P36896); details: ATP 10 µM

Sequence of RPS6KA2 KD1 KD2 (human) (Q15349 whole entry, looked up): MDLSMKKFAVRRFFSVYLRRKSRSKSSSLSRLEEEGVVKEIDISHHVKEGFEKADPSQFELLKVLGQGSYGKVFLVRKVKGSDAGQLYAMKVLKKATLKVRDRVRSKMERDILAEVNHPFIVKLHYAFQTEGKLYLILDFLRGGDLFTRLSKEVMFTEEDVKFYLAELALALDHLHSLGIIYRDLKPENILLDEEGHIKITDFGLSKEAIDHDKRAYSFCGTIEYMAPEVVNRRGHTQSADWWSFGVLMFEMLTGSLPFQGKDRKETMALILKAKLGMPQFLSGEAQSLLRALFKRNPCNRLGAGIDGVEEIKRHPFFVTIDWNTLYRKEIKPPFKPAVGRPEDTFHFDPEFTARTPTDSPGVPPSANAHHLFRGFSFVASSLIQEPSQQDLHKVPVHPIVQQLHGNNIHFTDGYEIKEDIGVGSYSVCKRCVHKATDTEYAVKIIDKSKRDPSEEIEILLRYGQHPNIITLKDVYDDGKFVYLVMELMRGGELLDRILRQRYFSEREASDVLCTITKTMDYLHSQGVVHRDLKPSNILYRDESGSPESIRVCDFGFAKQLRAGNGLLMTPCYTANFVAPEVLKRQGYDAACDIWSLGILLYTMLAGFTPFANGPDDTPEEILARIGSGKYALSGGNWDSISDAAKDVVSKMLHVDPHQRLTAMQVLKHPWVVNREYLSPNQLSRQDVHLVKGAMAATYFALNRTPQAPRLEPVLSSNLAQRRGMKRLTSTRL
Sequence of MTOR FKBP1A (human) (P62942 whole entry, looked up, other chains not shown): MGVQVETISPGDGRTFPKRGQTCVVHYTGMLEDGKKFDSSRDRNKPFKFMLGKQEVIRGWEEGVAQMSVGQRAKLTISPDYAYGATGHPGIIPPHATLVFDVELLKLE
Sequence of EPHA5 (human) (P54756 whole entry, looked up): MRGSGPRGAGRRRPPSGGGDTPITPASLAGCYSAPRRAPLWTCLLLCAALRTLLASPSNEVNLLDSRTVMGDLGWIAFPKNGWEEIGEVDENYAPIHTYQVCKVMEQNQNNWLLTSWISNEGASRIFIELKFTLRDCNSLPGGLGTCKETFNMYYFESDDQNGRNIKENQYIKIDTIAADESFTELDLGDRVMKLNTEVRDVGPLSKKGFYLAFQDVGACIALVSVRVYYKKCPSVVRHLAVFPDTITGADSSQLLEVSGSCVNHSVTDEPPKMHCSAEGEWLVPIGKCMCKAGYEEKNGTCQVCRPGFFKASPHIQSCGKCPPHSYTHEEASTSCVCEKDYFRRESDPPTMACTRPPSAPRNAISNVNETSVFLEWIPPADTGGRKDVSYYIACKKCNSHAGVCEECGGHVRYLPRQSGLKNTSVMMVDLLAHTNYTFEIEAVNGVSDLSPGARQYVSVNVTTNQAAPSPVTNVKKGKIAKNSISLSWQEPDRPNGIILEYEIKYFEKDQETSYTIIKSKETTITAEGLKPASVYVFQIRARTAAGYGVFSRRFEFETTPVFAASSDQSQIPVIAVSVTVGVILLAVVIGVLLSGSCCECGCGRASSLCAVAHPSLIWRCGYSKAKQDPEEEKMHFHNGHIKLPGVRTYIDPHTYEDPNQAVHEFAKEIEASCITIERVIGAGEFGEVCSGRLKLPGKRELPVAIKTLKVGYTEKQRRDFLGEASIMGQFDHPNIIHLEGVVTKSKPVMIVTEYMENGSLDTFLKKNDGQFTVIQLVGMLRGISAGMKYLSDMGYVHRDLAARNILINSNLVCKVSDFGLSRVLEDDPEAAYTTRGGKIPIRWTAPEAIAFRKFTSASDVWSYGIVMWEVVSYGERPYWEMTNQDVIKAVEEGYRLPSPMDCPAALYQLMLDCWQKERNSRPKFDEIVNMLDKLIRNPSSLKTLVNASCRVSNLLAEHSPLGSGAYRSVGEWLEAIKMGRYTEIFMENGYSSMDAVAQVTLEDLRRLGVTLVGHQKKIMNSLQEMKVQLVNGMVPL
Sequence of RPS6KA6 KD1 KD2 (human) (Q9UK32 whole entry, looked up): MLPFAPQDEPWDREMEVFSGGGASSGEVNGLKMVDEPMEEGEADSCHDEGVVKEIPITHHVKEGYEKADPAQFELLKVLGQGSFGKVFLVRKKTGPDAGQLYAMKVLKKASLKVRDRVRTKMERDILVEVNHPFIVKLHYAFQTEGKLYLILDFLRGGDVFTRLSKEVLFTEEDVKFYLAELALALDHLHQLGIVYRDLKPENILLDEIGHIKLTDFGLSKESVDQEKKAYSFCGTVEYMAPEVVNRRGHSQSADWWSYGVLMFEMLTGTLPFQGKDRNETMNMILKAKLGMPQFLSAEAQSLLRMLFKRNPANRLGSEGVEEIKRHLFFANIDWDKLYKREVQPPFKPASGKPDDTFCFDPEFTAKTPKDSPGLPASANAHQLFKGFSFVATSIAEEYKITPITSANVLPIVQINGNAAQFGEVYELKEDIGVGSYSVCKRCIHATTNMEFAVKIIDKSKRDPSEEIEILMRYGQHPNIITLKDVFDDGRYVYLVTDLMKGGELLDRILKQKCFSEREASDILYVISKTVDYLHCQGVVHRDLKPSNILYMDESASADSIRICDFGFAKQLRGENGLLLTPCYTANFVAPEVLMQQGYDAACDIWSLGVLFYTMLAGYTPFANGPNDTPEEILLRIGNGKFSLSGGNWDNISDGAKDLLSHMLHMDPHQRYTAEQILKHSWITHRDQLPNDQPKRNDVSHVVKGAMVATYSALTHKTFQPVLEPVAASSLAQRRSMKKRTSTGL
Sequence of GRK6 (human) (P43250 whole entry, looked up): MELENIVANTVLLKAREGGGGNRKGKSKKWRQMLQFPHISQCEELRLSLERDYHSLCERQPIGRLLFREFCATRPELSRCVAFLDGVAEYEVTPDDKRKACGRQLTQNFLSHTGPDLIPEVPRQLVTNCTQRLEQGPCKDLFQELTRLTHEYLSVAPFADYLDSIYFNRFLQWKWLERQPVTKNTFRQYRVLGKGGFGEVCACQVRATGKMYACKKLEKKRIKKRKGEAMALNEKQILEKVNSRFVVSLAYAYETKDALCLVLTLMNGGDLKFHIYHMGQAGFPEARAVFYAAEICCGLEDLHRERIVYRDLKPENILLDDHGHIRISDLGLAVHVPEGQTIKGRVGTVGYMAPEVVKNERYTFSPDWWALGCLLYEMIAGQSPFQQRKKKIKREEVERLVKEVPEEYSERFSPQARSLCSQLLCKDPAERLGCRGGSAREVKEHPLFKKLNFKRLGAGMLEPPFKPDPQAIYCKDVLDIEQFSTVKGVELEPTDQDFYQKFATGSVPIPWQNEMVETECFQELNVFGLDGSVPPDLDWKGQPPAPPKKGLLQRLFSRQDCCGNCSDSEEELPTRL
Sequence of CDK2 CCNA2 (human) (P20248 whole entry, looked up, other chains not shown): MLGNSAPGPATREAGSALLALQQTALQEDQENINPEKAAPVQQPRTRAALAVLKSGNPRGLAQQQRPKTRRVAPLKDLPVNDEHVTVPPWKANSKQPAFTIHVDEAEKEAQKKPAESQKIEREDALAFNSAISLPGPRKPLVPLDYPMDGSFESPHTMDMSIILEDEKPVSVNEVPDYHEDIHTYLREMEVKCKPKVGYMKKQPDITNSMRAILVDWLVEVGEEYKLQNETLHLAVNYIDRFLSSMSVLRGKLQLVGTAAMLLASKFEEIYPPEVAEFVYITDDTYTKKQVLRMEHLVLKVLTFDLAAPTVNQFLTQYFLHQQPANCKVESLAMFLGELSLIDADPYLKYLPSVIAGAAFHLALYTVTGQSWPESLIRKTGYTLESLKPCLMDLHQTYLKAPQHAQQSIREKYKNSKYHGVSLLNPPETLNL
Sequence of MARK2 (human) (Q7KZI7 whole entry, looked up): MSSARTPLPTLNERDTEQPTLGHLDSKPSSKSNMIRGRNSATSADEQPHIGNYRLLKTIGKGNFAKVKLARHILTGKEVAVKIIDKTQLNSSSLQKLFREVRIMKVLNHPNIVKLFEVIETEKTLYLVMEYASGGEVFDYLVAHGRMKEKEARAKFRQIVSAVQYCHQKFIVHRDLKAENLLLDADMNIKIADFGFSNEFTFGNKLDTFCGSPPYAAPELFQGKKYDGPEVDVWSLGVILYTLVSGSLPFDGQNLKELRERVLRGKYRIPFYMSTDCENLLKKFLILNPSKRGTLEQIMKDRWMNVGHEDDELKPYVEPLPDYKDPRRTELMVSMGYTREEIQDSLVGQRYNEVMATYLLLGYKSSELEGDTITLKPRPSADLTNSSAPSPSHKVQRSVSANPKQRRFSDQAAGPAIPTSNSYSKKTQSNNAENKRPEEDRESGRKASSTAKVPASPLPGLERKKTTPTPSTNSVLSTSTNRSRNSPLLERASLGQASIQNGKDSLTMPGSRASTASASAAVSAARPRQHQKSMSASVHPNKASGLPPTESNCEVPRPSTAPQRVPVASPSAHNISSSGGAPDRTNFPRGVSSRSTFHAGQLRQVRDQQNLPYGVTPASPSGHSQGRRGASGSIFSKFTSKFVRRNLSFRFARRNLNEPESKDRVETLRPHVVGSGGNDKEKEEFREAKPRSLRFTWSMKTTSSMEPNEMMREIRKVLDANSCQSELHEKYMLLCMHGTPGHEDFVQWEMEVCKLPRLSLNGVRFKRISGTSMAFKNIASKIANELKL
Sequence of IRAK4 (human), Q9NWZ3 [A81V] (Q9NWZ3 whole entry, looked up, stated change not applied): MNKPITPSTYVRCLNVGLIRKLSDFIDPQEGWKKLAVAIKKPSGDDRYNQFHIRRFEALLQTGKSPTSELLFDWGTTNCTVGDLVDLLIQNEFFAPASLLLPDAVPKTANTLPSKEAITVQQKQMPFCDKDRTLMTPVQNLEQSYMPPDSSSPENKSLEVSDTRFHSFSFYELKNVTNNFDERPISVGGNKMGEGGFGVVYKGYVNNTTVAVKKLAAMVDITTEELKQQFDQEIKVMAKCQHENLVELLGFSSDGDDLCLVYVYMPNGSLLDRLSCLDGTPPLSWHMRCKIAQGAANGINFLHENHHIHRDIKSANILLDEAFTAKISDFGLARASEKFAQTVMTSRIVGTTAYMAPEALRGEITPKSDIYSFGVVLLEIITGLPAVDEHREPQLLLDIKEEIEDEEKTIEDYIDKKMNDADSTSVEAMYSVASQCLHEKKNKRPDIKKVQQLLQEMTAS

residual activity (EPHA5 (human); compound 1.0 µM): 59% | residual activity (EPHA5 (human); compound 10.0 µM): 9% | residual activity ([1]; compound 1.0 µM): 2% | residual activity ([1]; compound 10.0 µM): 0% | residual activity (EPHA2 (human); compound 1.0 µM): 61% | residual activity (EPHA2 (human); compound 10.0 µM): 16% | residual activity (PLK2 (human); compound 1.0 µM): 97% | residual activity (PLK2 (human); compound 10.0 µM): 82% | residual activity (CSF1R (human); compound 1.0 µM): 15% | residual activity (CSF1R (human); compound 10.0 µM): 8% | residual activity (TLK2 (human); compound 1.0 µM): 60% | residual activity (TLK2 (human); compound 10.0 µM): 14% | residual activity (MAPK11 (human); compound 1.0 µM): 101% | residual activity (MAPK11 (human); compound 10.0 µM): 90% | residual activity (GRK7 (human); compound 1.0 µM): 73% | residual activity (GRK7 (human); compound 10.0 µM): 18% | residual activity (FGFR1 (human); compound 1.0 µM): 3% | residual activity (FGFR1 (human); compound 10.0 µM): -1% | residual activity (CSNK1D (rat); compound 1.0 µM): 14% | residual activity (CSNK1D (rat); compound 10.0 µM): 4% | residual activity (MTOR FKBP1A (human); compound 1.0 µM): 117% | residual activity (MTOR FKBP1A (human); compound 10.0 µM): 89% | residual activity ([2]; compound 1.0 µM): 37% | residual activity ([2]; compound 10.0 µM): 13% | residual activity (PTK2B (human); compound 1.0 µM): 14% | residual activity (PTK2B (human); compound 10.0 µM): 2% | residual activity (WNK2 (human); compound 1.0 µM): 90% | residual activity (WNK2 (human); compound 10.0 µM): 55% | residual activity (NUAK1 (human); compound 1.0 µM): 4% | residual activity (NUAK1 (human); compound 10.0 µM): 7% | residual activity (PRKCB2 (human); compound 1.0 µM): 95% | residual activity (PRKCB2 (human); compound 10.0 µM): 102% | residual activity (RPS6KA6 KD1 KD2 (human); compound 1.0 µM): 20% | residual activity (RPS6KA6 KD1 KD2 (human); compound 10.0 µM): 12% | residual activity (MAP3K9 (human); compound 1.0 µM): 6% | residual activity (MAP3K9 (human); compound 10.0 µM): 1% | residual activity (RPS6KA2 KD1 KD2 (human); compound 1.0 µM): 19% | residual activity (RPS6KA2 KD1 KD2 (human); compound 10.0 µM): 4% | residual activity (RPS6KA1 KD1 KD2 (human); compound 1.0 µM): 40% | residual activity (RPS6KA1 KD1 KD2 (human); compound 10.0 µM): 6% | residual activity (GRK6 (human); compound 1.0 µM): 81% | residual activity (GRK6 (human); compound 10.0 µM): 80% | residual activity (CLK3 (human); compound 1.0 µM): 79% | residual activity (CLK3 (human); compound 10.0 µM): 54% | residual activity (RPS6KA5 KD1 KD2 (human); compound 1.0 µM): 61% | residual activity (RPS6KA5 KD1 KD2 (human); compound 10.0 µM): 21% | residual activity (MARK2 (human); compound 1.0 µM): 48% | residual activity (MARK2 (human); compound 10.0 µM): 14% | residual activity (CDK2 CCNA2 (human); compound 1.0 µM): 19% | residual activity (CDK2 CCNA2 (human); compound 10.0 µM): 5% | residual activity ([3]; compound 1.0 µM): 41% | residual activity ([3]; compound 10.0 µM): 6% | residual activity (GRK5 (human); compound 1.0 µM): 92% | residual activity (GRK5 (human); compound 10.0 µM): 58% | residual activity (TXK (human); compound 1.0 µM): 45% | residual activity (TXK (human); compound 10.0 µM): 11% | residual activity ([4]; compound 1.0 µM): 59% | residual activity ([4]; compound 10.0 µM): 28% | residual activity (FRK (human); compound 1.0 µM): 13% | residual activity (FRK (human); compound 10.0 µM): 6% | residual activity (RPS6KA3 KD1 KD2 (human); compound 1.0 µM): 50% | residual activity (RPS6KA3 KD1 KD2 (human); compound 10.0 µM): 7% | residual activity (ACVR1B (human); compound 1.0 µM): 104% | residual activity (ACVR1B (human); compound 10.0 µM): 72%
Structure (SMILES): O=C1Nc2ccccc2/C1=C1\Nc2ccccc2\C1=N/O
